Experimental data: BindingDB's records for doi:10.1016/j.bmcl.2006.01.061 (Institute of Genomics and Integrative Biology, 2006)
Square brackets hold non-standard residues; d marks the D form. Peptide text beside a SMILES is read from it. Trp(5-OH) = N[C@@H](Cc1c[nH]c2ccc(O)cc12)C(=O)O; NMeW = CN[C@@H](Cc1c[nH]c2ccccc12)C(=O)O; Orn = NCCC[C@H](N)C(=O)O

Biological target: Angiotensin-converting enzyme (Bos taurus)
Test: Inhibition of ACE in bovine kidney

| Compound | IC50 [µM] |
| --- | --- |
| NCCC[C@H](NC(=O)CCc1nc2ccccc2[nH]1)C(=O)N1CCC[C@H]1C(=O)O [BPA-Lys-Pro] | 10 |
| CN[C@@H](Cc1c[nH]c2ccccc12)C(=O)N[C@@H](CCCN)C(=O)N1CCC[C@H]1C(=O)O [MTP-Orn-Pro] (H-[NMeW]-[Orn]-Pro-OH) | 10 |
| NCCC[C@H](NC(=O)[C@@H](N)Cc1c[nH]c2ccc(O)cc12)C(=O)N1CCC[C@H]1C(=O)O [HTP-Orn-Pro] (H-[Trp(5-OH)]-[Orn]-Pro-OH) | 4 |
